Patent US20190256929A1, “PHARMACODYNAMIC BIOMARKERS FOR PERSONALIZED CANCER CARE USING EPIGENETIC MODIFYING AGENTS” (ORYZON GENOMICS, S.A., priority 2016, published 2019)

Legend:
[1] = test system: panel of 14 cell lines (small cell lung cancer, non-small-cell lung cancer, acute myelogenic leukemia, acute lymphoblastic T-cell leukemia); assay: RNA-seq differential gene expression of PD markers in a panel of 14 cell lines; type: cell-based, human; conditions: 5 nM, 6 days
Method: A panel of 14 cell lines was treated with (trans)-N1-((1R,2S)-2-phenylcyclopropyl)cyclohexane-1,4-diamine (5 nM) or control vehicle for 6 days. The panel included eight small cell lung cancer cell lines (COLO 668, DMS 53, NCI-H146, NCI-H187, NCI-H446, NCI-H510A, NCI-H1417, SHP-77), two non-small-cell lung cancer cell lines (CAL-12T, NCI-H441), two acute myelogenic leukemia cell lines (KASUMI, OCI-AML2), and two acute lymphoblastic T-cell leukemia cell lines (JURKAT, SUP-T1).
Each cell line-treatment pair contained two to four biological replicates.
Expression data were obtained from whole transcriptomic RNA sequencing (RNA-seq) by Illumina, Inc. (San Diego, Calif.). The Illumina HiSeq machine generates raw base calls in reads of 50 or 100 bp length, which are subjected to several data analysis steps. The RNA-seq is conducted at 40 to 50 million reads per sample. This number provides relatively high sensitivity to detect low-expressed genes while allowing for cost-effective multiplexing of samples. RNA is prepared by standard kits and RNA libraries by polyA TruSeq Illumina kits. 100 ng of mRNA per cell line is used for each RNA-seq reaction. A number of quality control procedures are applied to the RNA-seq data for each sample. The Illumina HiSeq software reports the total number of clusters (DNA fragments) loaded in each lane, percent passing sequencing quality filters (which identifies errors due to overloading and sequencing chemistry), a phred quality score for each base of each sequence read, overall average phred scores for each sequencing cycle, and overall percent error (based on alignment to the reference genome). For each RNA-seq sample, the percentage of reads that contain mitochondrial and ribosomal RNA was calculated. The FASTQC package was used to provide additional QC metrics (base distribution, sequence duplication, overrepresented sequences, and enriched kmers) and a graphical summary. Raw reads were aligned against the human genome (hg19) using GSNAP and recommended options for RNASeq data. In addition to the genome sequence, GSNAP is given a database of human splice junctions and transcripts based on Ensembl v73. Resulting SAM files are then converted to sorted BAM files using Samtools. Gene expression values are calculated both as RPKM values following (Mortazavi A. et al. (2008) Nature Methods 5:621-628) and as read counts.
Differential gene expression analysis was performed using the DESeq2 package (Love M. I. et al. (2014) Genome Biology 15:550). Read counts from RNA-seq data were analyzed via a multi-factor generalized linear model of the negative binomial family, considering both treatment and the cell line type as factors that explain the changes in gene expression values.
The following filtering process was applied to identify genes that can serve as PD markers in surrogate tissues (skin or blood): • 1. […] The minimal expression level of the gene in normal blood and skin tissues was greater than one read per kilobase per million reads (RPKM, Mortazavi et al.), as obtained from the Genotype-Tissue Experssion (GTEx) project (The GTEx Consortium (2015) Science 348(6235):648-660). • 4. The minimal expression level of the gene in PBMC tissues was greater than 20 fragments per kilobase per million (FPKM; Trapnell C. et al. (2010) Nature Biotechnology 28:511-515) as obtained from the Ohmomo et al. study (Ohmomo H. et al. (2014) PLOS ONE 9(8):1-11). • 5. The gene is a target of LSD1, as determined by chromatin immunoprecipitation (ChIP) assay from the Adamo et al. study, or interacts with the LSD1 gene, as annotated by the BioGRID database (thebiogrid.org).
Additionally, we analyzed differential gene expression for a set of 35 genes which were previously identified as predictive biomarkers of response to LSD1 treatment.
Differentially expressed pathway analysis was done by the MetaBase R Library (Thompson Reuters).

PDX model FHSC04 = assay: RNA-seq PD gene change in SCLC PDX model FHSC04 treated in vivo; set-up: species or system mice; conditions: 400 μg/kg oral gavage
Method: To confirm the results obtained for small cell lung cancer cell line xenograft, changes in PD markers Notch1, ASCL1 and GRP were evaluated in PDX model FHSC04 treated in vivo with LSD1i (trans)-N1-((1R,2S)-2-phenylcyclopropyl)cyclohexane-1,4-diamine (FIG. 13). Eight to twelve-week-old NOD scid gamma mice were implanted with 1.0×10^6 disaggregated cells from PDX model FHSC04 in 100 μl of 1:1 HITES media:Matrigel. […] Once tumor volume reached 150-200 mm^3, mice were randomly assigned to treatment groups for 21-35 days, depending on the kinetics of growth in the given model. Animals were treated with saline or with 400 μg/kg ((trans)-N1-((1R,2S)-2-phenylcyclopropyl)cyclohexane-1,4-diamine, delivered by oral gavage once every 7 days, dissolved to 10 ml/kg with 0.9% saline solution. For the 10-day treatment in FHSC04 used for molecular analyses, an additional dose of 400 μg/kg (trans)-N1-((1R,2S)-2-phenylcyclopropyl)cyclohexane-1,4-diamine was given 4 hours before tissue collection.
For RNA-seq analyses using PDX samples in vivo, the Ultra RNA Library Prep Kit for Illumina (New England BioLabs; catalog E753L) was used to generate libraries from total RNA. All library preparation was conducted according to the manufacturer's instructions. Single-end sequencing (50 bp) was performed using an Illumina HiSeq 2500, reads of low quality were filtered prior to alignment to the hg19 genome build using TopHat v2.0.12 (Trapnell et al. Bioinformatics 2009 May 1; 25(9): 1105-1111). In vivo PDX samples were also aligned to mm9, where the mouse and human alignments from a given sample were compared, discarding from downstream analysis those reads which had fewer mismatches to mouse, relative to human. Cuffdiff v2.1.1 (Trapnell et al. Nat Biotechnol. 2013 January; 31(1):46-53) was used to generate fragment per kilobase per million (FPKM) expression values. Counts (CPM) were generated from TopHat alignments using the Python package HTSeq v0.6.1 (Anders et al. Bioinformatics. 2015 Jan. 15; 31(2): 166-169) using the “intersection-strict” overlap mode. […]

[2] = RNA-seq, median across all cell lines, vs vehicle

N[C@H]1CC[C@H](N[C@@H]2C[C@H]2c2ccccc2)CC1 [RG6016, (trans)-N1-((1R,2S)-2-phenylcyclopropyl)cyclohexane-1,4-diamine]
ASCL1 differential gene expression after treatment (in words) ([1]; RNA-seq): very significantly down-regulated
GRP differential gene expression after treatment (in words) ([1]; RNA-seq): very significantly down-regulated
CNN2 Median Log2 FC [1, 2]: 0.35
DENND5A Median Log2 FC [1, 2]: 0.32
NOTCH1 Median Log2 FC [1, 2]: 0.49
VIM Median Log2 FC [1, 2]: 0.46
ZFP36L1 Median Log2 FC [1, 2]: 0.27
ASCL1 Median Log2 FC ([1]; RNA-seq, vs vehicle): −0.16
GRP Median Log2 FC ([1]; RNA-seq, vs vehicle): −0.26
development NOTCH signaling pathway, differentially expressed pathway analysis ([1]; MetaBase R Library, RNA-seq data): one of the most significantly differentially expressed pathway
ASCL1 transcript regulation (FIG. 13) (PDX model FHSC04): down regulation
GRP transcript regulation (FIG. 13) (PDX model FHSC04): down regulation
NOTCH1 transcript regulation (FIG. 13) (PDX model FHSC04): up regulation
